For series [1] the following is noted: cell viability/%. The method, boiled down: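 First, library peptide stocks are diluted 250-fold in RPMI1640 with 10% heat-inactivated FBS. Next, they are mixed with P388 cells to give 1 × 10^4 cells/mL and incubated 92 h at 37 °C, 5% CO2. Finally, viability (%) is scored by WST-1 absorbance at 415 nm.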
Series [2] relates to Streptococcus pyogenes SSI-9. Nature of the series: Antibacterial activity assay of bead-derived peptides (three concentrations). The format is cell-based. On the set-up: key: +++: inhibition by the 640-fold diluted peptide solution; ++: inhibition by the 160-fold diluted solution; +: inhibition by the 40-fold diluted solution; -: no inhibition. As to conditions: S. pyogenes, bead-derived peptide solution, three concentrations. A digest of the protocol: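 Bead-derived library peptide stocks in DMSO were tested undiluted and after 4- and 16-fold DMSO dilution against S. pyogenes SSI-9 (2 × 10^5 CFU/well) in cation-adjusted Mueller Hinton Broth with 5% laked horse blood. After 18 h at 37 °C, wells were scored for precipitation of grown cells.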

A short description of series [3]: H+/Na+ transport assay of bead-derived peptides (one-point).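 Further: relative to parent gramicidin A activity set to 1.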 The format is biochemical. Also noted: key: relative activity; mean of two control wells = 1.00. As to conditions: bead-derived peptide solution, EYPC/EYPG LUVs. The method, boiled down: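 Miniaturized 96-well format. LUVs with entrapped pyranine (1.0 mM) were exposed to peptide for 30 min at RT. Intensities were expressed relative to full lysis by Triton X-100 and no treatment, with control-well mean = 1.00.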

What is called viability is a read-out of living cells in per cent, often relative to untreated cells.

Where a SMILES comes first, the peptide text is derived from it. [ ]: non-standard residue; d: D form. The star is where a group is joined. NHCH2CH2OH = OCCN*; For = O=C*

Consider `CC(C)C[C@@H](NC(=O)[C@H](C)NC(=O)[C@H](NC(=O)[C@H](C)NC(=O)CNC(=O)[C@@H](NC=O)C(C)C)C(C)C)C(=O)N[C@H](C(=O)N[C@@H](C(=O)N[C@@H](Cc1c[nH]c2ccccc12)C(=O)N[C@@H](C(=O)N[C@@H](Cc1c[nH]c2ccccc12)C(=O)N[C@H](CC(C)C)C(=O)N[C@@H](Cc1c[nH]c2ccccc12)C(=O)N[C@@H](C(=O)N[C@@H](Cc1c[nH]c2ccccc12)C(=O)NCCO)C(C)C)C(C)C)[C@H](C)O)C(C)C` [compound 3206] (For-VGA[dV]A[dL]V[dT]W[dV]W[dL]W[dV]W-NHCH2CH2OH), for which the viability in series [1] came to 97.4%. The antibacterial activity entry in series [2] is given as “-”. Besides, in series [3], the “H+/Na+ transport activity normalized against the value of 1 (1.00)” value worked out at 1.19.
In the same order, the values of `CNC(=O)C[C@@H](NC(=O)[C@@H](NC(=O)[C@@H](CC(C)C)NC(=O)[C@H](C)NC(=O)[C@H](NC(=O)[C@H](C)NC(=O)CNC(=O)[C@@H](NC=O)C(C)C)C(C)C)C(C)C)C(=O)N[C@@H](Cc1c[nH]c2ccccc12)C(=O)N[C@H](CC(C)C)C(=O)N[C@@H](Cc1c[nH]c2ccccc12)C(=O)N[C@H](CC(C)C)C(=O)N[C@@H](Cc1c[nH]c2ccccc12)C(=O)N[C@H](CC(C)C)C(=O)N[C@@H](Cc1c[nH]c2ccccc12)C(=O)NCCO` [compound 1242] (For-VGA[dV]A[dL]V[dD](NHMe)W[dL]W[dL]W[dL]W-NHCH2CH2OH) are 65.8%, “-” and 1.13.

These data come from PMC7531004, “Discovery of gramicidin A analogues with altered activities by multidimensional screening of a one-bead-one-compound library” (Nature Communications, 2020).
